Columns and labels:
breast cancer = test: Clinical observation and typical clinical cases of breast cancer patients; format: in vivo, human; conditions: clinical case 1, Abemaciclib and Fulvestrant for 3 days
4T1 breast cancer cells = test: 4T1 triple-negative mice breast cancer model, second batch, DTX with or without medium dose preparation, 31 days; format: in vivo, BALB/c mice
Description: after the required amount of 4T1 breast cancer cells were cultured, the cells were resuspended in phosphate-buffered saline (PBS) after trypsin digestion and centrifugation, and the cells were counted and diluted to a cell concentration of 1×10^7 cells/mL. All mice were intraperitoneally injected with 50 mg/kg pentobarbital sodium and 0.5% lidocaine solution for infiltration anesthesia, under anesthesia, 0.1 mL cell suspension of each mouse was inoculated in the third pair of mammary fat pads on the left side, the cotton swab was pressed for a moment to avoid cell outflow after inoculation. During the inoculation process, the pipette blows the cell suspension to ensure uniform suspension.
experimental BALB/c mice were divided into 3 groups with 10 mice in each group. They were the PBS group, chemotherapy […] (DTX) group, and DTX+medium dose (0.85 mg/kg) group.
The mice were administered by gavage on the second day after tumor implantation, the DTX group was intraperitoneally injected with 0.2 mL of DTX, once a week. The DTX+medium dose group was intraperitoneally injected with DTX at the first and fourth weeks of inoculation and combined with the medium dose of Antler-Ginseng compound preparation. The tumor volume (L×W2×0.4) and body weight of mice were measured on the 7th day after inoculation. For a total of 31 days. Flow cytometry analysis: three mice in each group of PBS group and DTX+medium dose group were selected randomly for flow cytometry analysis of tumor tissue and spleen. All statistical analyses were performed by using GraphPad Prism 9.0, P<0.05 was considered statistically significant.
6. The Antler-Ginseng compound preparation reduces the course of chemotherapy and the frequency of medication, and the anti-tumor effect is better than the anti-tumor effect of single-agent chemotherapy. […]

| increase of transaminase (liver function) (breast cancer) [times] | SMILES | body weight of the experimental animals (4T1 breast cancer cells; DTX once a week, combination with halved chemotherapy frequency plus medium dose preparation) | tumor volume compared with the PBS group (4T1 breast cancer cells; P<0.05) | tumor weight compared with the PBS group (4T1 breast cancer cells; P<0.05) |
| --- | --- | --- | --- | --- |
| 10 | CCN1CCN(Cc2ccc(Nc3ncc(F)c(-c4cc(F)c5nc(C)n(C(C)C)c5c4)n3)nc2)CC1 [Abemaciclib] |  |  |  |
|  | CC(=O)O[C@@]12CO[C@@H]1C[C@H](O)[C@@]1(C)C(=O)[C@H](O)C3=C(C)[C@@H](OC(=O)[C@H](O)[C@@H](NC(=O)OC(C)(C)C)c4ccccc4)C[C@@](O)([C@@H](OC(=O)c4ccccc4)[C@H]21)C3(C)C [DTX, docetaxel] | significantly reduced | significantly lower | significantly lower |
